A short description of data set [1]: Mole:mole creatinine to creatine ratios required for stability at 2, 22 and 39° C. over pH 3.8 to 8.25 (Example 5). Particulars: for time to reach stability: starting ratios close to equilibrium.
Method: Using solutions from 1. above the following solutions were prepared at room temperature:
Triplicate samples were prepared.
The samples were capped and heat sterilized for 30 minutes at 90° C.
One set of samples was stored at 2° C., another set at 22° C. and the final set stored at 39°.
For data set [2] the following is noted: ingestion of 20 to 30 g per day for several days; cited from earlier work.
Assay in data set [3]: not given
This is another data set of the same source.

Data set [4] is described as follows: Flavored drink of creatine plus creatinine formed by heating: stability at 22° C. and solubility at 3° C. (Example 4). Particulars: Example 4 drink at 3° C. The format is physicochemical. Here is the method:
The solution was cooled to room temperature.
In addition, the solution contained 15 percent Aloe Vera juice, flavoring and dextrose to sweeten.
Solutions from steps 1 and 2 were then mixed together and heated at 90° C. for 30 minutes to sterilize the mixture and then placed in a glass or plastic bottle and stored at 22° C.

The conditions of data set [5]: human body; cited from earlier work.
For data set [6] the following is noted: Vandeberg et al 1996 J. Appl. Physiology 80; cited from earlier work.

Structures are written as SMILES. Read-outs that look alike come from different tables or passages of the source.

As for `CN(CC(=O)O)C(=N)N.O` [creatine monohydrate], in data set [1] (39° C.), the “increase between weeks 5 and 6 as creatine monohydrate” value was determined as 0.113 g per litre. Moreover, the “increase in human skeletal muscle total creatine content” value in data set [2] was “greater than 20%”.

`CN(CC(=O)O)C(=N)N` [creatine]: the “period remaining creatine stable after heating” value (pH's 3 and 4, after 30 minutes at 90° C., 22° C.) was “at least 95 days”. Besides, the “stability of creatine with sufficient creatinine” value (pH's 5, 6 and 7, creatinine:creatine monohydrate 1:1, heated 30 minutes at 90° C.) is on record as “exceptionally stable”. Besides, for the setting “pH's 6 and 7, 90° C. 30 minutes, creatinine 1:1 w/w”, the “loss of creatine during the heating period” value is “no loss of creatine”. Also, the “time to reach equilibrium” value in data set [3] (solution of low pH, composed initially of just creatine, 22° C. (FIG. 2)) is on record as “up to 8 weeks”. Further, the “time to reach stability” value in data set [3] (starting with creatine and no creatinine, 22° C.) is recorded as at least 4 weeks; in data set [1] (incubated at 39° C.) it was below 5 weeks; in data set [1] (incubated between 2 and 39° C.) it was at most 6 weeks. Moreover, the precipitation in refrigerator entry in data set [4] is on record as “did not precipitate out”. The “mean change in creatine concentration between weeks 5 and 6” value in data set [1] (39° C., mean (SD)) is reported as “+0.76 (SD 1.3) mmol/l”. Moreover, the “percentage change from weeks 5 and 6” value in data set [1] (39° C., mean (SD)) was 3.1 (3.8) %.

For `Cn1c(=O)c2c(ncn2C)n(C)c1=O` [caffeine], in data set [5], the “half life of ingested caffeine” value was 5 to 6 h. The “effect on ergogenic action of muscle creatine loading” value in data set [6] was “counteracted the ergogenic action of muscle creatine loading”.

The record behind these values is patent publication US7150880B2, “Compositions containing creatine and creatinine and a methyl xanthine” (The Original Creatine Patent Co. Ltd., priority 1996, dated 2006).
